Measured values as given in patent publication US8809270B2, “Method for reducing cardiovascular morbidity and mortality in prediaetic patients and patients with type 2 diabetes” (priority 2003, dated 2014).
“Also recorded” adds a separate entry of the source.

What was measured:
[1] = Post-marketing surveillance safety database; set-up: species or system human
Text: (§1) Treatment with Lantus® LANTUS (insulin glargine) insulin offers the possibility of a smooth, daylong, blood insulin profile without a definite peak that can be finely titrated to lower subjects' FPG in a durable manner, while minimizing the risk of hypoglycemia at other times of day.

[2] = system: people with impaired glucose tolerance (IGT) or impaired fasting glucose (IFG), mild type 2 diabetes; experiment: Study HOE901/1021: fasting and 8-point blood glucose profiles, bedtime dose titration; type: in vivo, human
Text: Study HOE901/1021 was a randomized, single-blind (pharmacist-unblinded), inpatient, dose-titration study designed to examine the safety and efficacy of HOE901 given once a day subcutaneously at bedtime in a novel population: people with impaired glucose tolerance (IGT) or impaired fasting glucose (IFG). It was conceived as a pilot study for a large international trial of HOE901 in a dysglycemic population of IGT, IFG, and early type 2 diabetes in order to investigate dosing in the prediabetic (IFG/IGT) population for the first time. Of special interest was the incidence of hypoglycemia during the study.
The study was conducted at three centers in the US. After screening tests, including fasting plasma glucose (FPG) and post prandial plasma glucose (PPG; two hours following a 75 g oral glucose load) for classification as IGT, IFG, diabetic, or normal glucose tolerance (NGT), and after satisfying other inclusion criteria including the ability to perform moderate exercise on a stationary bicycle, subjects were admitted to an inpatient study center. They were confined there for the next 15 days, during which time they were randomly assigned to receive either HOE901 once per day subcutaneously in the evening, or matching placebo (saline) injections in a 3:1 randomization (HOE901:placebo). Baseline assessments included a 5-point (before each meal, bedtime, and 3 AM) and 8-point (5-point plus readings 2 hours after each meal) blood glucose profile on separate days, and 15 minutes of exercise on a stationary bicycle at a level of exertion of “somewhat hard” on the Borg scale with blood glucose values monitored during and for 3 hours following the exercise. Each subject received a 25 kCal/kg diet while confined in the study center. Capillary whole blood glucose values were recorded on HemoCue devices. Episodes of hypoglycemia (blood glucose 50 mg/dL [2.8 mM] or symptoms with blood glucose 65 mg/dL [3.6 mM]) were recorded.
Once randomized, subjects' bedtime doses of study drug were titrated to achieve a fasting blood glucose (FBG) of 80-95 mg/dL [4.4 mM-5.3 mM]. Dose increases were based on FBG values and were performed every 2 days. Subjects remained at the site until the end of the confinement period, regardless of when target FBG levels were achieved. Five-point blood glucose profiles were performed every other day, with 8-point blood glucose profiles performed on alternate days. At endpoint all baseline procedures, including an 8-point blood glucose profile, and an exercise assessment, were repeated.

[3] = system: US/Canada type 2 diabetic patients; experiment: Treat-to-Target study: hypoglycemia, bedtime LANTUS vs. NPH insulin; type: in vivo, human; conditions: single bedtime dose
Description: The ideal basal insulin might be expected to be less worrisome from this standpoint because the circulating insulin produced would target blood glucose elevations throughout the day rather than mealtime fluctuations. […] The “Treat-to-Target” study ^38 in US/Canada type 2 diabetic patients investigated whether a single bedtime dose of Lantus® LANTUS (insulin glargine) vs. NPH insulin (a moderate- to long-acting insulin with a pronounced peak in plasma activity for 4 to 8 hours after injection)^39 would achieve target metabolic control without increasing nocturnal hypoglycemia.
Insulin has features that make it especially useful in the patient with pronounced diabetic dyslipidemia, as compared to the oral antidiabetic agents usually used as initial pharmacotherapy. […] NPH insulin despite having a prolonged duration of action, has a pronounced peak effect from 3-6 hours after injection, rendering it less suitable in the management of the patient with milder diabetes due to the risk for hypoglycemia.

[4] = in vivo; cited from earlier work
[5] = system: type 2 diabetic population inadequately treated with oral drugs; experiment: Treat-to-Target study (HOE901/4002): lipid data; type: in vivo, human; set-up: Triglycerides % reduction from baseline / Triglycerides % reduction from baseline, LANTUS-AMARYL / Non-HDL Cholesterol Total % reduction from baseline / Non-HDL Cholesterol Total % reduction from baseline, LANTUS-AMARYL: concentration or dose not given beside the values; Triglycerides Baseline / Triglycerides Endpoint: unit not given beside the values; conditions: for Non-HDL Cholesterol Total % reduction from baseline, LANTUS-AMARYL / Non-HDL Cholesterol Total change at endpoint, LANTUS-AMARYL / Triglycerides % reduction from baseline, LANTUS-AMARYL / Triglycerides change at endpoint, LANTUS-AMARYL: LANTUS (4002 Study) minus AMARYL (two AMARYL studies)
Text: As a consequence of the excellent glycemic control attained, which set the standard for glycemic control in future trials, the 4002 study results are especially useful as an assessment of Lantus's LANTUS (insulin glargine) effects on lipids.

[6] = Multiple-dose pharmacokinetic study (Study 1020); type: in vivo; conditions: 2 days of treatment
Text: as §1

For insulin glargine [LANTUS], the “incidence of hypoglycemia or unexpected adverse reactions compared to other marketed insulin preparations” value [1] was “no increased incidence of hypoglycemia or unexpected adverse reactions”, the “Mean FBG” value ([2]; Day 12 (endpoint)) was 85.6 mg/dL and the “Mean FBG” value ([2]; Day −1 (baseline)) was 98.1 mg/dL. For the same substance, the “reduction in mean daylong blood glucose” value ([2]; Day −1 to Day 12) was 8.8 mg/dL, the “subjects who had reached an FPG of 100 mg/dL” value ([2]; by Day 12) was “All but 2” and the “subjects who had reached the FBG target of 95 mg/dL or less” value ([2]; by Day 12) was “all but 4”. For the same substance, the “hypoglycemia vs. NPH” value [3] was “significant reductions in nocturnal hypoglycemia; also recorded: significant advantages over NPH in hypoglycemia”, the duration of action [4] was “up to 24 hour” and the “HDL Baseline” value ([5]; TG baseline range 200-500) was 42. The “HDL Endpoint” value ([5]; TG baseline range 200-500) was 41, the “Non-HDL Cholesterol Total % reduction from baseline” value ([5]; TG baseline range 200-500) was 7% and the “Non-HDL Cholesterol Total Baseline” value ([5]; TG baseline range 200-500) was 167. For the same substance, the “Non-HDL Cholesterol Total Endpoint” value ([5]; TG baseline range 200-500) was 155, the “Triglycerides % reduction from baseline” value ([5]; TG baseline range 200-500) was 25% and the “Triglycerides Baseline” value ([5]; TG baseline range 200-500) was 288. For the same substance, the “Triglycerides Endpoint” value ([5]; TG baseline range 200-500) was 232, the “Non-HDL Cholesterol Total % reduction from baseline, LANTUS-AMARYL” value ([5]; TG baseline range 200-500) was 4% and the “Non-HDL Cholesterol Total change at endpoint, LANTUS-AMARYL” value (“Non-HDL Cholesterol Total change” below) ([5]; TG baseline range 200-500) was 5.8. For the same substance, the “Triglycerides % reduction from baseline, LANTUS-AMARYL” value ([5]; TG baseline range 200-500) was 13%, the “Triglycerides change at endpoint, LANTUS-AMARYL” value (from here on “Triglycerides change at endpoint”) ([5]; TG baseline range 200-500) was 21.7 and the “HDL Baseline” value ([5]; TG baseline range 300-500) was 40. For the same substance, the “HDL Endpoint” value ([5]; TG baseline range 300-500) was 40, the “Non-HDL Cholesterol Total % reduction from baseline” value ([5]; TG baseline range 300-500) was 15% and the “Non-HDL Cholesterol Total Baseline” value ([5]; TG baseline range 300-500) was 180. The “Non-HDL Cholesterol Total Endpoint” value ([5]; TG baseline range 300-500) was 152, the “Triglycerides % reduction from baseline” value ([5]; TG baseline range 300-500) was 34% and the “Triglycerides Baseline” value ([5]; TG baseline range 300-500) was 362. For the same substance, the “Triglycerides Endpoint” value ([5]; TG baseline range 300-500) was 240, the “Non-HDL Cholesterol Total % reduction from baseline, LANTUS-AMARYL” value ([5]; TG baseline range 300-500) was 12% and the “Non-HDL Cholesterol Total change” value ([5]; TG baseline range 300-500) was 21.9. The “Triglycerides % reduction from baseline, LANTUS-AMARYL” value ([5]; TG baseline range 300-500) was 16%, the “Triglycerides change at endpoint” value ([5]; TG baseline range 300-500) was 52.5 and the “HDL Baseline” value ([5]; TG baseline range 300-1000) was 37. For the same substance, the “HDL Endpoint” value ([5]; TG baseline range 300-1000) was 38, the “Non-HDL Cholesterol Total % reduction from baseline” value ([5]; TG baseline range 300-1000) was 10% and the “Non-HDL Cholesterol Total Baseline” value ([5]; TG baseline range 300-1000) was 181. The “Non-HDL Cholesterol Total Endpoint” value ([5]; TG baseline range 300-1000) was 163, the “Triglycerides % reduction from baseline” value ([5]; TG baseline range 300-1000) was 36% and the “Triglycerides Baseline” value ([5]; TG baseline range 300-1000) was 470. The “Triglycerides Endpoint” value ([5]; TG baseline range 300-1000) was 301, the “Non-HDL Cholesterol Total % reduction from baseline, LANTUS-AMARYL” value ([5]; TG baseline range 300-1000) was 5% and the “Non-HDL Cholesterol Total change” value ([5]; TG baseline range 300-1000) was 8.6. For the same substance, the “Triglycerides % reduction from baseline, LANTUS-AMARYL” value ([5]; TG baseline range 300-1000) was 13%, the “Triglycerides change at endpoint” value ([5]; TG baseline range 300-1000) was 63.6 and the “HDL Baseline” value ([5]; TG baseline range 500-1000) was 33. The “HDL Endpoint” value ([5]; TG baseline range 500-1000) was 36, the “Non-HDL Cholesterol Total % reduction from baseline” value ([5]; TG baseline range 500-1000) was 8% and the “Non-HDL Cholesterol Total Baseline” value ([5]; TG baseline range 500-1000) was 186. For the same substance, the “Non-HDL Cholesterol Total Endpoint” value ([5]; TG baseline range 500-1000) was 171, the “Triglycerides % reduction from baseline” value ([5]; TG baseline range 500-1000) was 38% and the “Triglycerides Baseline” value ([5]; TG baseline range 500-1000) was 661. For the same substance, the “Triglycerides Endpoint” value ([5]; TG baseline range 500-1000) was 409, the “Non-HDL Cholesterol Total % reduction from baseline, LANTUS-AMARYL” value ([5]; TG baseline range 500-1000) was −2% and the “Non-HDL Cholesterol Total change” value ([5]; TG baseline range 500-1000) was −9.0. The “Triglycerides % reduction from baseline, LANTUS-AMARYL” value ([5]; TG baseline range 500-1000) was 5%, the “Triglycerides change at endpoint” value ([5]; TG baseline range 500-1000) was 34.4 and the “LDL Baseline” value ([5]; TG baseline range All) was 113. The “LDL Endpoint” value ([5]; TG baseline range All) was 110, the “reduction in fasting TG levels” value ([5]; all patients) was 24% and the “reduction in fasting TG levels” value ([5]; elevations of 500 mg/dL or more) was 38%. The “reduction in fasting TG levels” value ([5]; fasting TG in the 300-499 mg/dL range) was 34% and the “doses to reach steady-state levels” value [6] was 2 doses.
